Source: US5871954A, “Fatty acid analog enzyme substrates” (Washington University, priority 1993, dated 1999)
Entries after “also recorded” stand apart in the source; their conditions may differ. Starred links: 1 amine or outer side, 2 acyl side, 3 side chain; linkers in the order of their positions; H or OH if unused. Non-standard residues stand in square brackets, D forms with d. No end group written: not given here. *: point of attachment. Tyr(125I) = 125I-iodotyrosine, O=C([C@H](Cc1ccc(O[*:3])c([125I])c1)N[*:1])[*:2]; 11‑(ethylthio)undecanoyl = CCSCCCCCCCCCCC(=O)*

Experiments:
wheat germ NMT = assay: in vitro wheat germ NMT myristoylation assay, kinetics with iodinated peptide GNAAS[125I]YRR; assay type: biochemical
Description: Myristoyl CoA and fatty acid analog CoA were generated by incubation of the fatty acid or analog with CoA, ATP and CoA ligase. This reaction mixture was added to wheat germ NMT and Gly-Asn-Ala-Ala-Ser-[^125 I]Tyr-Arg-Arg in the presence of 0.03% Triton® X-100. Reaction products were characterized by reverse phase HPLC and gamma counting.
The invention is illustrated in greater detail in the following Examples 1 to 15 by the synthesis and testing of representative compounds of the invention as myristoylating enzyme substrates. Accordingly, the invention is first illustrated in Examples 1 to 5 by the chemical synthesis of a sulfur-containing analog of myristic acid, namely 11-(ethylthio)undecanoicacid, CH3 CH2 --S--(CH2)10 COOH, which is then tested in vitro as a wheat germ NMT substrate. Wheat germ NMT is a protein similar to yeast NMT. The purity and chemical identity of the synthesized compound were examined using ^1 H and ^13 C NMR as well as mass spectroscopy. The assay that was used to characterize the substrate specificity of wheat germ NMT measures the rate of attachment of a radiolabelled fatty acid to an unlabelled peptide. The fatty acid analog synthesized was nonradioactive.
The in vitro assay for NMT activity requires the enzymatic generation of fatty acyl CoA. Since the Pseudomonas acyl CoA ligase is quite nonspecific [Shimizo et al., Anal. Biochem. 107, 193-198 (1980)] and is used in excess, it should equally well convert myristic acid and 11-(ethylthio)undecanoic acid to the corresponding CoA esters. It is, therefore, believed that the data represent the relative catalytic efficiency of fatty acyl CoA and analog CoA for wheat germ NMT.
Assays for NMT activity were performed using a procedure detailed previously by Towler and Glaser, Proc. Natl. Acad. Sci. USA 83, 2812-2816 (1986). Briefly, the in vitro assay measures the transfer of radiolabelled fatty acid from acyl CoA to a synthetic peptide substrate. The acylpeptide product is identified by reverse phase HPLC. Time and enzyme dependence were evaluated by varying the reaction time or the enzyme concentration. […] Fatty acid specificity was examined essentially as described by Towler et al., J. Biol. Chem. 262, 1030-1036 (1987), except that the peptide Gly-Ser-Ser-Lys-Ser-Lys-Pro-Lys rather than Gly-Asn-Ala-Ala-Ala-Ala-Arg-Arg was used to compare palmitate and myristate utilization by wheat germ NMT. This was necessary because of the presence of a large, peptide-independent peak which co-eluted with a palmitoyl-Gly-Asn-Ala-Ala-Ala-Ala-Arg-Arg standard. [^3 H]Palmitate and [^3 H]myristate were used in this comparison. [^14 C]fatty acids were used to compare C-10, C-12 and C-14 chain lengths. Fatty acyl CoA concentrations in these assays were determined by a modification of the method of Hosaka et al., Methods Enzymol. 71, 325-333 (1981).
Gly-Asn-Ala-Ala-Ser-[^125 I]Tyr-Arg-Arg as prepared in Example 2, above, was tested in an in vitro myristoylation system which was modified from that used with radiolabelled fatty acids. […] 20-fold more wheat germ NMT (480-fold purified as in Example 3, above) was used for these assays than for assays which employed [^3 H] myristate. […] Double reciprocal plots were generated for the iodinated peptide with both myristic acid and the sulfur analog by altering the peptide concentration in the presence of a constant amount of fatty acid or analog. […] The assays contained 0.03% Triton X-100 to maintain the solubility of the fatty acids.

[1] = C18 reverse phase HPLC elution of acyl peptides (hydrophobicity); assay type: physicochemical; conditions: for elution earlier than the corresponding myristoyl peptide: acyl-GNAASYRR[125I]; for Elution Time: Table 2, C18 reverse phase HPLC; for elution time of fatty acyl derivative of GNAAAARR: HPLC
Description: The fatty acid analog acyl-peptide eluted 7 minutes earlier than the corresponding myristoyl peptide. The free peptide elutes in the void volume (3-5 minutes).
This difference was evident when the HPLC elution characteristics of fatty acyl peptides were examined. The elution time of a particular acyl-peptide depends strongly on the peptide sequence as well as on the acyl chain attached to that peptide. For example, the elution times of fatty acyl derivatives of GNAAAARR are (in minutes) decanoic acid, 9; dodecanoic acid, 18; myristic acid, 24; and palmitic acid, 30. Elution times for fatty acyl derivatives of GNAAS[^125 I]YRR are 23 and 28 minutes for C12 and C14 fatty acids, respectively (FIG. 2). […] Such a change could alter the biological activity of myristoyl proteins.
(§1) For these Examples, each analog synthesized is characterized by ^1 H and 13C NMR as well as mass spectroscopy. The analogs are then characterized kinetically as NMT substrates. Briefly, fatty acid analogs are converted to their CoA esters with Pseudomonas CoA ligase and incubated with the iodinated peptide GNAAS[^125 I]YRR and a source of NMT. […] The radiolabelled peptide is then used at concentrations which will lead to 50% enzyme saturation (i.e., at its Km) for the determination of fatty acid analog kinetic characteristics. Representative analogs with sulfur or oxygen in the backbone of the fatty acid chain serve as good substrates for NMT in vitro and will compete for incorporation of ^3 H labelled myri-state into yeast proteins in vivo. In addition, these analogs differ markedly in hydrophobicity from myri-state as measured both by C18 reverse phase HPLC elution profiles and by 2-octanol/water partition coefficients. The analog CH3 O (CH2)11 COOH, for example, partitions into water 20 fold better than myristate. It is believed that these analogs will be incorporated into mammalian acylproteins in vivo and that their incorporation into these proteins will drastically alter protein processing or targeting. It is further believed that the incorporation of fatty acid analogs of both myristate and palmitate into ester linked and phosphatidyl inositol glycan linked acylproteins will also dramatically alter their properties. Since many viral proteins and oncogenes are acylated, these compounds represent a new class of potential antiviral and antineoplastic agents.

yeast NMT = molecular target: T1, yeast NMT (Saccharomyces cerevisiae, UniProt P14743); assay: in vitro yeast NMT assay, kinetics of fatty acid analog substrates with iodinated peptide GNAAS[125I]YRR; assay type: biochemical; conditions: for Acyl CoA Vm / Peptide Vm: Table 2, relative to myristate control 100%; for Acyl CoA Vm: peptide at its Km; for Peptide Vm: fatty acid analog at 15 μM
T1 construct: 11,000-fold purified preparation of yeast NMT; from tissue; host or cells: yeast
T1 sequence (P14743 1-455): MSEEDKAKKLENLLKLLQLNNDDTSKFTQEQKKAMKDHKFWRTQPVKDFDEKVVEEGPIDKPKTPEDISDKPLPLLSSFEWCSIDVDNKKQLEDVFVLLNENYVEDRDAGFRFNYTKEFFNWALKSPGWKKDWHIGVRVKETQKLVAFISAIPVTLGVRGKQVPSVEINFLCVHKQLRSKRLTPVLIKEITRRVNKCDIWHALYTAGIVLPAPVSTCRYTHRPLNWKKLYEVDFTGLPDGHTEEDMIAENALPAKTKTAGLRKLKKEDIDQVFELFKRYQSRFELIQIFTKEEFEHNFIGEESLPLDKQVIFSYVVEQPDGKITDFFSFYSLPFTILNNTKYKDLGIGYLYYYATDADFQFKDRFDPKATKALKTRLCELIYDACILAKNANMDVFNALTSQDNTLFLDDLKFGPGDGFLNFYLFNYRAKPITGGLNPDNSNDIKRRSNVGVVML
Text: Similar results were obtained using an 11,000-fold purified preparation of yeast NMT [Towler et al., Proc. Natl. Acad. Sci. USA 84, 2708-2712 (1987)].
Other illustrative examples of the oxy- and thio-substituted fatty acid analog substrate compounds of the invention were synthesized in Examples 6 to 14 and tested in Example 15 as substrates for the yeast NMT.
as §1

[2] = molecular target: T2, myristoyl CoA: protein N-myristoyl transferase (NMT) (Saccharomyces cerevisiae, UniProt P14743); assay: substrate activity for myristoylating enzyme (general statement); assay type: biochemical; conditions: in words
T2 construct: CoA ester made in situ by Pseudomonas CoA ligase
T2 sequence (P14743 1-455): T1 sequence (P14743 1-455)
Description: Purification and use of this enzyme are described, for example, by Towler et al., Proc. Natl. Acad. Sci. USA 84, 2708-2712 (1987); J. Biol. Chem. 262, 1030-1036 (1987).
as §1, with “It is further believed that the incorporation of fatty acid analogs of both myristate and palmitate into ester linked and phosphatidyl inositol glycan linked acylproteins will also dramatically alter their properties. Since many viral proteins and oncogenes are acylated, these compounds represent a new class of potential antiviral and antineoplastic agents.” left out

[3] = C-18 reverse phase HPLC, FIG. 2
[4] = iodinated peptide 40 μM, 0.03% Triton X-100, FIG. 1

Compound	Acyl CoA Vm (yeast NMT) [%]	Elution Time [1] [min]	Peptide Vm (yeast NMT) [%]	also measured
CCSCCCCCCCCCCC(=O)SCCNC(=O)CCNC(=O)[C@H](O)C(C)(C)COP(=O)(O)OP(=O)(O)OC[C@H]1O[C@@H](n2cnc3c(N)ncnc32)[C@H](O)[C@@H]1OP(=O)(O)O				substrate quality vs myristoyl CoA (wheat germ NMT; wheat germ NMT): at least as good a substrate for wheat germ NMT as myristoyl CoA itself
Gly-Asn-Ala-Ala-Ser-[^125 I]Tyr-Arg-Arg [free peptide, reference compound]				elution of free peptide (void volume) [1, 3]: 3 to 5 min
11-(ethylthio)undecanoyl-GNAASYRR[^125 I]: fatty acid analog acyl-peptide ({11‑(ethylthio)undecanoyl}-GNAAS[Tyr(125I)]RR)				elution earlier than the corresponding myristoyl peptide [1, 3]: 7 min; elution earlier than the corresponding myristoyl peptide ([1]; C-18 reverse phase HPLC, FIG. 2, listed as 11-(ethylthio)undecanoyl-GNAAS [^125 I]YRR): seven minutes earlier
CCCCCCCCSCCCCC(=O)O [CH3 (CH2)7 S(CH2)4 COOH, 5-(Octylthio)pentanoic acid]	160	21		
CCCOCCCCCCCCCC(=O)O [CH3 (CH2)2 O(CH2)9 COOH, 10-(Propoxy)decanoic acid]	250		150	
C#CCOCCCCCCCCCC(=O)O [HC≡CCH2 O(CH2)9 COOH, 10-(2-Propynoxy)decanoic acid]	320	9	200	
CCCSCCCCCCCCCC(=O)O [CH3 (CH2)2 S(CH2)9 COOH, 10-(Propylthio)decanoic acid]	250	18		
CCCCCCCCCCCCCCCC(=O)O [palmitic acid, reference compound]				elution time of fatty acyl derivative of GNAAAARR [1]: 30 min
CCSCCCCCCCCCCC(=O)O [CH3 CH2 S(CH2)10 COOH, 11-(Ethylthio)undecanoic acid]	130	18	98	effectiveness as substrate [2]: leaves intact its ability to act as a substrate; Km and Vmax vs C14:0 fatty acid (yeast NMT; 11,000-fold purified yeast NMT): indistinguishable from that of the C14:0 fatty acid; effect on the kinetic characteristics of the peptide substrate (wheat germ NMT; in words, vs myristic acid): did not significantly alter the kinetic characteristics of the peptide substrate; Km (as CoA ester), times higher than for myristate (wheat germ NMT; [4]): 1.5 times; Vmax (as CoA ester), times higher than for myristate (wheat germ NMT; [4]): 3.5 times; apparent maximal velocity, times higher than with myristic acid (wheat germ NMT; peptide substrate varied): 2.3 times; hydrophobicity ([1]; in words, vs myristic acid): decreases its hydrophobicity; also recorded: significantly different from that of myristic acid
CCCCCCCCCCCCCC(=O)O [CH3 (CH2)12 COOH, myristic acid, reference compound]	100	26	100	elution time of fatty acyl derivative of GNAAS[125I]YRR [1, 3]: 28 min; elution time of fatty acyl derivative of GNAAAARR [1]: 24 min
CCCCCCCCOCCCCC(=O)O [CH3 (CH2)7 O(CH2)4 COOH, 5-(octyloxy)pentanoic acid]		16		
CCCCCCCCCCCC(=O)O [dodecanoic acid, reference compound]				elution time of fatty acyl derivative of GNAAS[125I]YRR [1, 3]: 23 min; elution time of fatty acyl derivative of GNAAAARR [1]: 18 min
CCOCCCCCCCCCCC(=O)O [CH3 CH2 O(CH2)10 COOH, 11-(Ethoxy)undecanoic acid]	64	12	62	
CCCCCCCCCC(=O)O [decanoic acid, reference compound]				elution time of fatty acyl derivative of GNAAAARR [1]: 9 min
CCCCOCCCCCCCCCCC(=O)O [CH3 (CH2)3 O(CH2)10 COOH, 11-(1-Butoxy)undecanoic acid]	80	19	25	effectiveness as substrate [2]: less effective than the analogs based on C13 -C14 fatty acids
